# Values of other authors in patent publication US20250169496A1, “USE OF 2-AMINO-3-HYDROXY-3-METHYLBUTYRIC ACID AND/OR 2-AMINO-3-(4-HYDROXYPHENYL) BUTYRIC ACID” (NANJING TIANNONG BIOTECHNOLOGY CO., LTD., priority 2021, published 2025).
# Tested on: Lactobacihs arabinosu
# Conditions: cited from earlier work
smiles,measurement,value
CC(C)(O)[C@H](N)C(=O)O [L-2-amino-3-hydroxy-3-methylbutyric acid],Inhibition of the synthesis of valine,could inhibit the synthesis of valine
